Reference: patent publication US20230212571A1, “COMPOSITIONS AND METHODS FOR DELIVERING POLYNUCLEOTIDES” (NeOnc Technologies, Inc., priority 2020, published 2023)

Assays:
AVM-BEC [1] = test: Biotinylated miR-18a uptake analysis in AVM-BEC; format: cell-based, human; conditions: biotinylated probes, 30 min at 37° C., no transfection reagent, Ago-2 0.4 nM when indicated
Protocol: Biotinylated hsa-miR-18a-5p sense and hsa-miR-18a-3p sense probes were acquired from Integrated DNA Technologies (IDT) and reconstituted in RNAse-free water. A scramble sequence of the miR-18a was designed using GenScript®, and the biotinylated probe using this sequence was also acquired from IDT and reconstituted in RNAse-free water. […] Then, media was replaced by fresh media containing the corresponding probes without Lipofectamine, and AVM-BEC were incubated for 30 min at 37° C. in shear flow conditions. When indicated, Ago-2 (0.4 nM, Abcam) was co-administered with the probes as the microRNA carrier and stabilizer^1. Cells were then washed with PBS and fixed with 4% paraformaldehyde (PFA). Avidin/Biotin blocking kit (Vector Laboratories) was used to block unspecific bindings, and cells were incubated with Alexa Fluor 488 streptavidin (1:200, Thermo Fisher Scientific) for 1 h at room temperature to detect the tagged microRNAs. DAPI (Thermo Fisher Scientific) was used to detect cell nuclei. Cells were mounted with Dako Fluorescence Mounting Medium. Pictures were taken in a Zeiss LSM 510 confocal microscope (Carl Zeiss Inc.).

AVM-BEC [2] = test: ELISA of AVM-BEC supernatants; format: cell-based, human
Source text: Human surgical specimens were obtained following written informed consent from patients in accordance with Declaration of Helsinki guidelines and the Institutional Review Board (HS-04B053), at Keck School of Medicine, USC. AVM-BECs were isolated from brain tissues of patients who underwent microsurgical AVM resection. Control BECs were isolated from the structurally normal […] of patients who underwent temporal lobectomy for intractable epilepsy. Endothelial cell (EC) isolation and culture were described^5,9. (Stapleton C J, Armstrong D L, Zidovetzki R, Liu C Y, Giannotta S L, Hofman F M. Thrombospondin-1 modulates the angiogenic phenotype of human cerebral arteriovenous malformation endothelial cells. Neurosurgery. 2011; 68(5):1342-1353) (Ferreira R, Santos T, Amar A, et al. Argonaute-2 promotes miR-18a entry in human brain endothelial cells. J Am Heart Assoc. 2014; 3(3):e000968) ECs were only used between passages 3-5. Experiments were performed under shear flow conditions (12 dyn/cm^2) to reproduce arterial flow^6. (Ferreira R, Santos T, Amar A, et al. MicroRNA-18a improves human cerebral arteriovenous malformation endothelial cell function. Stroke. 2014; 45(1):293-297). For hypoxic experiments, cells were cultured in a Galaxy 48R (Eppendorf) incubator at 3% O2. MicroRNAs were co-administered with Ago-2 to increase the cellular uptake of miR-18a^9 (Ferreira R, Santos T, Amar A, et al. Argonaute-2 promotes miR-18a entry in human brain endothelial cells. J Am Heart Assoc. 2014; 3(3):e000968) (FIG. 9). Methods regarding cell treatments and transfections were included in Data.
Small interfering RNA transfection was performed as previously described^5. Briefly, ECs were transfected with small interfering RNA (siRNA) against ID1 or PAI-1 (Thermo Fisher Scientific), or small interfering control (Santa Cruz Biotechnology) constructs using Lipofectamine RNAiMax (Thermo Fisher Scientific) per the manufacturer's instructions. Knockdown of ID1 or PAI-1 was confirmed by quantitative real-time polymerase chain reaction as described^6 (FIG. 19). The sequences of the forward and reverse primers for ID1 and PAI-1 were included in Table 2.
Plasmid constructs pcDNA3-ALK2^WT (Addgene #80870) and pcDNA3-ALK2^Q207D (Addgene #80871) were a gift from Aristidis Moustakas^7. (Meyer B, Schaller C, Frenkel C, Ebeling B, Schramm J. Distributions of local oxygen saturation and its response to changes of mean arterial blood pressure in the cerebral cortex adjacent to arteriovenous malformations. Stroke. 1999; 30(12):2623-2630) 10^4 AVM-BEC were seeded 24 h before transfection. The plasmid vector containing the 3′ untranslated region (3′UTR) of human BMP4, pRP [Exp]-Puro-CMV>Luciferase:{hBMP4_3′UTR}, was constructed and packaged by VectorBuilder. The vector ID is VB200205-1078zdv, which can be used to retrieve detailed information about the vector on vectorbuilder.com. Transient transfections were performed with Lipofectamine RNAiMax (Thermo Fisher Scientific) according to the manufacturer's instructions. After 4 h, medium was replaced by fresh medium containing microRNA.
MiR-18a (hsa-miR-18a-5p, 40 nM, Dharmacon) or a scramble microRNA (40 nM, Dharmacon) in nuclease-free water was added with argonaute 2 (Ago-2, 0.4 nM, Abcam) as the microRNA carrier and stabilizer^9. (Ferreira R, Santos T, Amar A, et al. Argonaute-2 promotes miR-18a entry in human brain endothelial cells. J Am Heart Assoc. 2014; 3(3):e000968). No transfection reagent was used with miR-18a or scramble microRNA treatments. Recombinant human TSP-1 (R&D Systems) stock solution was prepared in PBS and further diluted in culture medium to be used at a final concentration of 1000 ng/mL. Cells were treated during 24 h for mRNA and 48 h for protein expression studies. NEO100 (NeOnc Technologies) stock was prepared in DMSO and used immediately or stored at −20° C. […]

## hsa-miR-18a-5p (UAGGUGCAUCUAGUGCAGAUAG; chemistry not given here; listed as Homo sapiens) [small non-coding RNA molecule involved in post-transcriptional regulation of gene expression; Dharmacon]
AVM-BEC [1]
  uptake: levels of miR-18a detected inside the AVM-BEC and their nuclei: enough to obtain AVM-BEC uptake
AVM-BEC [2]; ALK2^WT-transfected AVM-BEC, P=0.0030
  VEGF levels (ELISA): decrease VEGF levels
AVM-BEC [2]; AVM-BEC supernatants, P>0.9999
  levels of secreted TGF-β (ELISA): not significantly changed
AVM-BEC [2]; AVM-BEC supernatants, normoxia, vs scramble microRNA
  levels of secreted PAI-1: decreased
AVM-BEC [2]; AVM-BEC supernatants, normoxia, decrease only reached significance with miR-18a
  levels of secreted VEGF: decreased
AVM-BEC [2]; AVM-BEC transfected with constitutively active ALK2^Q207D, P>0.9999
  VEGF levels (ELISA): unable to decrease VEGF levels
AVM-BEC [2]; AVM-BEC transfected with siCTL, P=0.0007 vs scramble
  levels of secreted VEGF: decreased
AVM-BEC [2]; AVM-BEC transfected with siPAI-1
  effects of miR-18a in the decrease of secreted VEGF levels: lost
AVM-BEC [2]; AVM-BEC, hypoxia 3% oxygen
  PAI-1 secretion: reduction of PAI-1 secretion caused by miR-18a was still observed
